# Source: patent publication US20240209028A1, “CNP COMPOUNDS” (priority 2022, published 2024)
# Starred links: 1 amine or outer side, 2 acyl side, 3 side chain; linkers in the order of their positions; H or OH if unused. Positions of bridges follow the written chain, without caps; N, C: chain ends. Residues, ends and D or L forms follow the SMILES beside them. *: point of attachment. C18 diacid = O=C(O)CCCCCCCCCCCCCCCCC(=O)*; γGlu = O=C(O)[C@H](CCC(=O)[*:2])N[*:1]; AEEA = NCCOCCOCC(=O)O
# Target: T1, human natriuretic peptide receptor 2 (hNPR2) (Homo sapiens, UniProt P20594)
# T1 construct: expressed in transfected cells; host or cells: HEK293 (ATCC CRL-1573), clone 35, co-transfected with pGloSensor-42F
# T1 sequence (P20594 23-1047): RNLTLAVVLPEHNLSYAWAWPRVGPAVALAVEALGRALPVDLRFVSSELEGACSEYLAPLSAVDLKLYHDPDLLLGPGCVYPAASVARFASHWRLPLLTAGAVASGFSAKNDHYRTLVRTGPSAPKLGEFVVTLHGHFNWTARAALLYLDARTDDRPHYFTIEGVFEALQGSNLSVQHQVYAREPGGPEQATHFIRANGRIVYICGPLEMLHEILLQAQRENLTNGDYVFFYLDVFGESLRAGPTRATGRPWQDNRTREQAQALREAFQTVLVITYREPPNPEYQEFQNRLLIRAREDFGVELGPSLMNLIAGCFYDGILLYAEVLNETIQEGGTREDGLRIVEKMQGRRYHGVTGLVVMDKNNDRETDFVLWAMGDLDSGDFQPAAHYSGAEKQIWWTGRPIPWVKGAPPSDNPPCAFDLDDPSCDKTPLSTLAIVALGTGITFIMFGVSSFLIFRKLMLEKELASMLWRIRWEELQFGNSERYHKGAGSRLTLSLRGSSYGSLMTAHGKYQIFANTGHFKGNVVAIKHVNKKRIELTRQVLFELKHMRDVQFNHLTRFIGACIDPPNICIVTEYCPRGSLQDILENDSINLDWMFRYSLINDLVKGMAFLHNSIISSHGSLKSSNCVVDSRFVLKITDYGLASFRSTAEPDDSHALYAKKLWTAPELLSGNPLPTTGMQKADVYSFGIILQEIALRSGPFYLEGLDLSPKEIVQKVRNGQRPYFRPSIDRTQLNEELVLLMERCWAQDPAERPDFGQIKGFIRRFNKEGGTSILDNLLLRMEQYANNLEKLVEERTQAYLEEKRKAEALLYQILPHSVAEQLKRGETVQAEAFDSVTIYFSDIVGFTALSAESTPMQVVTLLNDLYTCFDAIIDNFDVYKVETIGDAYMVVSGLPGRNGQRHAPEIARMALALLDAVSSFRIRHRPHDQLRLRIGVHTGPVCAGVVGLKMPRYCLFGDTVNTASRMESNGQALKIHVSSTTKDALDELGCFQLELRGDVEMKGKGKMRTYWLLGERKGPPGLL
# Test: In vitro hNPR2 activity assay (cGMP GloSensor reporter, HEK293)
# Assay type: cell-based
# Details: 0% HSA; HEK293-hNPR2/GloSensor cells
# How it was run: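 Potency is the EC50 from a four-parameter logistic fit, also expressed relative to the in-plate CNP22 control (×100), with at least two replicates. Compounds (ten concentrations, […], HSA-free diluent with 1% OVA, 0.01% Tween20) were incubated 30 min at 37 °C on HEK293 cells co-expressing hNPR2 and a GloSensor cGMP luciferase. Luminescence detected with Bright-Glo.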
row,Compound,EC50
1,CC[C@H](C)[C@@H]1NC(=O)[C@H](CCCNC(=N)N)NC(=O)[C@H](CCC(=O)O)NC(=O)[C@H](CC(C)C)NC(=O)[C@@H]2CCCN2C(=O)[C@H](CC(C)C)NC(=O)CNC(=O)[C@H](Cc2ccccc2)NC(=O)[C@@H](NC(=O)CNC(=O)[C@H](CO)NC(=O)[C@H](CO)NC(=O)[C@H](CC(C)C)NC(=O)CNC(=O)[C@H](CCCCN)NC(=O)[C@H](CCCCN)NC(=O)[C@H](CCC(N)=O)NC(=O)[C@H](C)NC(=O)CNC(=O)[C@H](CCC(=O)O)NC(=O)[C@H](Cc2ccc(O)cc2)NC(=O)COCCOCCNC(=O)COCCOCCNC(=O)CC[C@H](NC(=O)CCCCCCCCCCCCCCCCC(=O)O)C(=O)O)CSSC[C@@H](C(=O)O)NC(=O)CNC(=O)[C@H](CC(C)C)NC(=O)CNC(=O)[C@H](CO)NC(=O)[C@H](CC(C)C)NC(=O)[C@H](CO)NC(=O)CNC1=O [compound 1338] ({C18 diacid-γGlu-AEEA-AEEA}-YEGAQKKGLSSGCFGLPLERIGSLSGLGC-OH; disulfide 13-29),6.77 nM

# Same assay, conditions: potency relative to CNP22 (0065)
row,Compound,hNPR2 0% HSA. [EC50% rel CNP]
1,CC[C@H](C)[C@@H]1NC(=O)[C@H](CCCNC(=N)N)NC(=O)[C@H](CC(=O)O)NC(=O)[C@H](CC(C)C)NC(=O)[C@H](CCCCN)NC(=O)[C@H](CC(C)C)NC(=O)CNC(=O)[C@H](Cc2ccccc2)NC(=O)[C@@H](NC(=O)CNC(=O)[C@H](CCCCN)NC(=O)[C@H](CO)NC(=O)[C@H](CC(C)C)NC(=O)CN)CSSC[C@@H](C(=O)O)NC(=O)CNC(=O)[C@H](CC(C)C)NC(=O)CNC(=O)[C@H](CO)NC(=O)[C@H](CCSC)NC(=O)[C@H](CO)NC(=O)CNC1=O [compound 0065],100.0%
2,CC[C@H](C)[C@@H]1NC(=O)[C@H](CCCNC(=N)N)NC(=O)[C@H](CC(=O)O)NC(=O)[C@H](CC(C)C)NC(=O)[C@@H]2CCCN2C(=O)[C@H](CC(C)C)NC(=O)CNC(=O)[C@H](Cc2ccccc2)NC(=O)[C@@H](NC(=O)CNC(=O)[C@H](CCCCN)NC(=O)[C@H](CO)NC(=O)[C@H](CC(C)C)NC(=O)CNC(=O)[C@H](CCCCN)NC(=O)[C@H](CCCCN)NC(=O)[C@H](CCC(N)=O)NC(=O)[C@H](C)NC(=O)CNC(=O)[C@H](CCCCN)NC(=O)[C@H](Cc2ccc(O)cc2)NC(=O)CNC(=O)CNC(=O)CNC(=O)CC[C@H](NC(=O)CC[C@H](NC(=O)CC[C@H](NC(=O)CC[C@H](NC(=O)CCCCCCCCCCCCCCCCC(=O)O)C(=O)O)C(=O)O)C(=O)O)C(=O)O)CSSC[C@@H](C(=O)O)NC(=O)CNC(=O)[C@H](CC(C)C)NC(=O)CNC(=O)[C@H](CO)NC(=O)[C@H](CC(C)C)NC(=O)[C@H](CO)NC(=O)CNC1=O [compound 1388] ({C18 diacid-γGlu-γGlu-γGlu-γGlu}-GGGYKGAQKKGLSKGCFGLPLDRIGSLSGLGC-OH; disulfide 16-32),23.5%
3,CC[C@H](C)[C@@H]1NC(=O)[C@H](CCCNC(=N)N)NC(=O)[C@H](CC(=O)O)NC(=O)[C@H](CC(C)C)NC(=O)[C@@H]2CCCN2C(=O)[C@H](CC(C)C)NC(=O)CNC(=O)[C@H](Cc2ccccc2)NC(=O)[C@@H](NC(=O)CNC(=O)[C@H](CCC(N)=O)NC(=O)[C@H](CO)NC(=O)[C@H](CC(C)C)NC(=O)CNC(=O)[C@H](CCCCN)NC(=O)[C@H](CCCCN)NC(=O)[C@H](CCC(N)=O)NC(=O)[C@H](C)NC(=O)CNC(=O)[C@H](CCCCN)NC(=O)[C@H](Cc2ccc(O)cc2)NC(=O)[C@H](CCCCN)NC(=O)[C@H](CCCNC(=N)N)NC(=O)[C@H](C)NC(=O)COCCOCCNC(=O)COCCOCCNC(=O)COCCOCCNC(=O)COCCOCCNC(=O)CC[C@H](NC(=O)CC[C@H](NC(=O)CC[C@H](NC(=O)CC[C@H](NC(=O)CC[C@H](NC(=O)CCCCCCCCCCCCCCCCC(=O)O)C(=O)O)C(=O)O)C(=O)O)C(=O)O)C(=O)O)CSSC[C@@H](C(=O)O)NC(=O)CNC(=O)[C@H](CC(C)C)NC(=O)CNC(=O)[C@H](CO)NC(=O)[C@H](CCSC)NC(=O)[C@H](CO)NC(=O)CNC1=O [compound 1465] ({C18 diacid-γGlu-γGlu-γGlu-γGlu-γGlu-AEEA-AEEA-AEEA-AEEA}-ARKYKGAQKKGLSQGCFGLPLDRIGSMSGLGC-OH; disulfide 16-32),24.0%
4,CC[C@H](C)[C@@H]1NC(=O)[C@H](CCCNC(=N)N)NC(=O)[C@H](CCC(=O)O)NC(=O)[C@H](CC(C)C)NC(=O)[C@@H]2CCCN2C(=O)[C@H](CC(C)C)NC(=O)CNC(=O)[C@H](Cc2ccccc2)NC(=O)[C@@H](NC(=O)CNC(=O)[C@H](CO)NC(=O)[C@H](CO)NC(=O)[C@H](CC(C)C)NC(=O)CNC(=O)[C@H](CCCCN)NC(=O)[C@H](CCCCN)NC(=O)[C@H](CCC(N)=O)NC(=O)[C@H](C)NC(=O)CNC(=O)[C@H](CCC(=O)O)NC(=O)[C@H](Cc2ccc(O)cc2)NC(=O)COCCOCCNC(=O)COCCOCCNC(=O)CC[C@H](NC(=O)CCCCCCCCCCCCCCCCC(=O)O)C(=O)O)CSSC[C@@H](C(=O)O)NC(=O)CNC(=O)[C@H](CC(C)C)NC(=O)CNC(=O)[C@H](CO)NC(=O)[C@H](CC(C)C)NC(=O)[C@H](CO)NC(=O)CNC1=O [compound 1338] ({C18 diacid-γGlu-AEEA-AEEA}-YEGAQKKGLSSGCFGLPLERIGSLSGLGC-OH; disulfide 13-29),1.3%
5,CC[C@H](C)[C@@H]1NC(=O)[C@H](CCCNC(=N)N)NC(=O)[C@H](CC(=O)O)NC(=O)[C@H](CC(C)C)NC(=O)[C@@H]2CCCN2C(=O)[C@H](CC(C)C)NC(=O)CNC(=O)[C@H](Cc2ccccc2)NC(=O)[C@@H](NC(=O)CNC(=O)[C@H](CCCCN)NC(=O)[C@H](CO)NC(=O)[C@H](CC(C)C)NC(=O)CNC(=O)[C@H](CCCCN)NC(=O)[C@H](CCC(=O)O)NC(=O)[C@H](CCC(N)=O)NC(=O)[C@H](C)NC(=O)CNC(=O)[C@H](CCC(=O)O)NC(=O)[C@H](Cc2ccc(O)cc2)NC(=O)COCCOCCNC(=O)COCCOCCNC(=O)CC[C@H](NC(=O)CCCCCCCCCCCCCCCCC(=O)O)C(=O)O)CSSC[C@@H](C(=O)O)NC(=O)CNC(=O)[C@H](CC(C)C)NC(=O)CNC(=O)[C@H](CO)NC(=O)[C@H](CC(C)C)NC(=O)[C@H](CO)NC(=O)CNC1=O [compound 1226] ({C18 diacid-γGlu-AEEA-AEEA}-YEGAQEKGLSKGCFGLPLDRIGSLSGLGC-OH; disulfide 13-29),7.5%
6,CC[C@H](C)[C@@H]1NC(=O)[C@H](CCCNC(=N)N)NC(=O)[C@H](CC(=O)O)NC(=O)[C@H](CC(C)C)NC(=O)[C@@H]2CCCN2C(=O)[C@H](CC(C)C)NC(=O)CNC(=O)[C@H](Cc2ccccc2)NC(=O)[C@@H](NC(=O)CNC(=O)[C@H](CO)NC(=O)[C@H](CO)NC(=O)[C@H](CC(C)C)NC(=O)CNC(=O)[C@H](CCCCN)NC(=O)[C@H](CCCCN)NC(=O)[C@H](CCC(N)=O)NC(=O)[C@H](C)NC(=O)CNC(=O)[C@H](CCC(=O)O)NC(=O)COCCOCCNC(=O)COCCOCCNC(=O)CC[C@H](NC(=O)CCCCCCCCCCCCCCCCC(=O)O)C(=O)O)CSSC[C@@H](C(=O)O)NC(=O)CNC(=O)[C@H](CC(C)C)NC(=O)CNC(=O)[C@H](CO)NC(=O)[C@H](CC(C)C)NC(=O)[C@H](CO)NC(=O)CNC1=O [compound 1339] ({C18 diacid-γGlu-AEEA-AEEA}-EGAQKKGLSSGCFGLPLDRIGSLSGLGC-OH; disulfide 12-28),15.5%
7,CC[C@H](C)[C@@H]1NC(=O)[C@H](CCCNC(=N)N)NC(=O)[C@H](CC(=O)O)NC(=O)[C@H](CC(C)C)NC(=O)[C@@H]2CCCN2C(=O)[C@H](CC(C)C)NC(=O)CNC(=O)[C@H](Cc2ccccc2)NC(=O)[C@@H](NC(=O)CNC(=O)[C@H](CO)NC(=O)[C@H](CO)NC(=O)[C@@H](NC(=O)CNC(=O)[C@@H](NC(=O)[C@H](CCCCN)NC(=O)[C@H](CCC(N)=O)NC(=O)[C@H](C)NC(=O)CNC(=O)[C@H](Cc2c[nH]cn2)NC(=O)[C@H](Cc2ccc(O)cc2)NC(=O)[C@H](CCCCN)NC(=O)[C@H](CCCNC(=N)N)NC(=O)[C@H](C)NC(=O)COCCOCCNC(=O)COCCOCCNC(=O)CC[C@H](NC(=O)CC[C@H](NC(=O)CC[C@H](NC(=O)CCCCCCCCCCCCCCCCC(=O)O)C(=O)O)C(=O)O)C(=O)O)[C@@H](C)O)C(C)C)CSSC[C@@H](C(=O)O)NC(=O)CNC(=O)[C@H](CC(C)C)NC(=O)CNC(=O)[C@H](CO)NC(=O)[C@H](CC(C)C)NC(=O)[C@H](CO)NC(=O)CNC1=O [compound 1450] ({C18 diacid-γGlu-γGlu-γGlu-AEEA-AEEA}-ARKYHGAQKTGVSSGCFGLPLDRIGSLSGLGC-OH; disulfide 16-32),84.2%
8,CC[C@H](C)[C@@H]1NC(=O)[C@H](CCCNC(=N)N)NC(=O)[C@H](CC(=O)O)NC(=O)[C@H](CC(C)C)NC(=O)[C@@H]2CCCN2C(=O)[C@H](CC(C)C)NC(=O)CNC(=O)[C@H](Cc2ccccc2)NC(=O)[C@@H](NC(=O)CNC(=O)[C@H](CO)NC(=O)[C@H](Cc2c[nH]cn2)NC(=O)[C@H](CC(C)C)NC(=O)CNC(=O)[C@H](CCCCN)NC(=O)[C@H](CCCCN)NC(=O)[C@H](CCC(N)=O)NC(=O)[C@H](C)NC(=O)CNC(=O)COCCOCCNC(=O)COCCOCCNC(=O)CC[C@H](NC(=O)CCCCCCCCCCCCCCCCC(=O)O)C(=O)O)CSSC[C@@H](C(=O)O)NC(=O)CNC(=O)[C@H](CC(C)C)NC(=O)CNC(=O)[C@H](CO)NC(=O)[C@H](CC(C)C)NC(=O)[C@H](CO)NC(=O)CNC1=O [compound 1348] ({C18 diacid-γGlu-AEEA-AEEA}-GAQKKGLHSGCFGLPLDRIGSLSGLGC-OH; disulfide 11-27),31.4%
